target: PD-1/PD-L1 (Homo sapiens (Human), UniProt Q9NZQ7); assay: PD-1/PD-L1 Binding Assay (Alphascreen); settings: numeric values
In short: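 PD-1/PD-L1 binding detected by anti-6×His acceptor and streptavidin donor beads after 120 min in the dark at 25 °C. Beforehand, the two proteins were incubated 15 min at 25 °C with inhibitor at 0.015–300 nM (1% DMSO). IC50 comes from a log concentration–response curve.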

Chain of PD-1/PD-L1 (Q9NZQ7 19-238): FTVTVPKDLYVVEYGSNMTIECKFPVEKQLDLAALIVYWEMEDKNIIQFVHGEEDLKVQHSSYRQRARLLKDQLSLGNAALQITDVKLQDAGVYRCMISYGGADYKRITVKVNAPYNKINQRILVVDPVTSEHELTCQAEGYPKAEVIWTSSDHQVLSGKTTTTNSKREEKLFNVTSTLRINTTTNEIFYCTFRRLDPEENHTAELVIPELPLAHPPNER

IC50 [nM] | Compound
2.3 | Cc1c(-c2nc3c(o2)CCN(CC(=O)O)C3)cccc1-c1cccc(-c2nc3cc(CN4CCC[C@H]4C(=O)O)c(OC(F)F)cc3o2)c1C [Example 184, ((2-(3′-(5-(carboxymethyl)-4,5,6,7-tetrahydrooxazolo[4,5-c]pyridin-2-yl)-2,2′-dimethyl-[1,1′-biphenyl]-3-yl)-6-(difluoromethoxy)benzo[d]oxazol-5-yl)methyl)-L-proline]

same assay, conditions: range symbols

IC50 [nM] | Compound
0.1 to 5 | Cc1c(Nc2nccc3cc(CN4CCC(O)C4)cnc23)cccc1-c1cccc(-c2nc3cc(CN4CCC[C@@H]4C(=O)O)c(OC(F)F)cc3o2)c1C (stereo partly drawn) [Example 182, ((6-(difluoromethoxy)-2-(3′-((3-((3-hydroxypyrrolidin-1-yl)methyl)-1,7-naphthyridin-8-yl)amino)-2,2′-dimethyl-[1,1′-biphenyl]-3-yl)benzo[d]oxazol-5-yl)methyl)-D-proline]
5 to 50 | Cc1c(Nc2cc(CN3CCCC3)ccn2)cccc1-c1cccc(-c2nc3cc(OC(F)F)c(CN4CCC[C@H]4C(=O)O)cc3o2)c1C [Example 183, ((5-(difluoromethoxy)-2-(2,2′-dimethyl-3′-((4-(pyrrolidin-1-ylmethyl)pyridin-2-yl)amino)-[1,1′-biphenyl]-3-yl)benzo[d]oxazol-6-yl)methyl)-L-proline]
0.1 to 5 | Cc1c(-c2nc3c(o2)CCN(CCS(C)(=O)=O)C3)cccc1-c1cccc(-c2nc3cc(CN4CCC[C@H]4C(=O)O)c(OC(F)F)cc3o2)c1C [Example 185, ((6-(difluoromethoxy)-2-(2,2′-dimethyl-3′-(5-(2-(methylsulfonyl)ethyl)-4,5,6,7-tetrahydrooxazolo[4,5-c]pyridin-2-yl)-[1,1′-biphenyl]-3-yl)benzo[d]oxazol-5-yl)methyl)-L-proline]
0.1 to 5 | Cc1c(-c2nc3c(o2)CCN(C(C)C(=O)O)C3)cccc1-c1cccc(-c2nc3cc(CN4CCC[C@H]4C(=O)O)c(OC(F)F)cc3o2)c1C (stereo partly drawn) [Example 186, ((2-(3′-(5-(1-carboxyethyl)-4,5,6,7-tetrahydrooxazolo[4,5-c]pyridin-2-yl)-2,2′-dimethyl-[1,1′-biphenyl]-3-yl)-6-(difluoromethoxy)benzo[d]oxazol-5-yl)methyl)-L-proline]
0.1 to 5 | Cc1c(-c2nc3c(o2)CCN(CCC(=O)O)C3)cccc1-c1cccc(-c2nc3cc(CN4CCC[C@H]4C(=O)O)c(OC(F)F)cc3o2)c1C [Example 187, ((2-(3′-(5-(2-carboxyethyl)-4,5,6,7-tetrahydrooxazolo[4,5-c]pyridin-2-yl)-2,2′-dimethyl-[1,1′-biphenyl]-3-yl)-6-(difluoromethoxy)benzo[d]oxazol-5-yl)methyl)-L-proline]
0.1 to 5 | Cc1c(-c2nc3c(o2)CN(C)CC3)cccc1-c1cccc(-c2nc3cc(CN4CCC[C@H]4C(=O)O)c(OC(F)F)cc3o2)c1C [Example 188, ((6-(difluoromethoxy)-2-(2,2′-dimethyl-3′-(5-methyl-4,5,6,7-tetrahydrooxazolo[5,4-c]pyridin-2-yl)-[1,1′-biphenyl]-3-yl)benzo[d]oxazol-5-yl)methyl)-L-proline]
0.1 to 5 | Cc1c(-c2nc3c(o2)CN(CCO)CC3)cccc1-c1cccc(-c2nc3cc(CN4CCC[C@H]4C(=O)O)c(OC(F)F)cc3o2)c1C [Example 189, ((6-(difluoromethoxy)-2-(3′-(5-(2-hydroxyethyl)-4,5,6,7-tetrahydrooxazolo[5,4-c]pyridin-2-yl)-2,2′-dimethyl-[1,1′-biphenyl]-3-yl)benzo[d]oxazol-5-yl)methyl)-L-proline]
5 to 50 | Cc1c(-c2nc3c(o2)CCN(CC2CCC(=O)N2)C3)cccc1-c1cccc(-c2nc3cc(CN4CCC[C@H]4C(=O)O)c(OC(F)F)cc3o2)c1C (stereo partly drawn) [Example 193, ((6-(difluoromethoxy)-2-(2,2′-dimethyl-3′-(5-((5-oxopyrrolidin-2-yl)methyl)-4,5,6,7-tetrahydrooxazolo[4,5-c]pyridin-2-yl)-[1,1′-biphenyl]-3-yl)benzo[d]oxazol-5-yl)methyl)proline]

Source: patent publication US12187713B2, “Immunomodulators, compositions and methods thereof” (Betta Pharmaceuticals Co., Ltd, priority 2019, dated 2025)
